≈ marks a conversion by molar mass, not a printed value. Where two headings read alike, the source gives them in different places.
How the values were obtained:
[1] = test system: CCD-18Co (human normal colon cell line); test: Cell growth inhibition assay (SRB assay), CCD-18Co; type: cell-based; conditions: for IC50: Homo sapiens, CCD-18Co, 48 h; for IC50 / Growth inhibition IC50: CCD-18Co normal cells, SRB assay; for Growth inhibition IC50: 48 hours
Experimental: (§1) HeLa (human cervical cancer cell line), v-ras-transformed NIH3T3 (mouse fibroblast cell line), Colon 3.1-M26 (mouse colon cancer cell line), MG63 (human osteosarcoma cell line) and MCF-7 (human breast cancer cell line) cells were cultured in DMEM (Dulbecco's modified Eagle's medium, produced by Life Technologies, Inc.). A2058 (human melanoma cell line), AGS (human gastric adenocarcinoma cell line), HBL-100 (human breast cancer cell line), CCD-18Co (human normal colon cell line) and LL86 (human normal lung cell line) cells were cultured in RPMI 1640 (Life Technologies, Inc.) in the presence of 10% FBS and 1% penicillin/streptomycin.
(§2) A cell growth inhibition assay according to sulforhodamine B (SRB) protein dye assay was carried out to examine the effects of apicidin derivative prepared in the Examples on mouse and human cancer cells. The cells were placed in wells and during cultivation were treated with 0.01, 0.1, 0.5, 1, and 2 μg/mL of apicidin, SD9801, SD9802, SD9803, the compound of Example 1, the compound of Example 2 and the compound of Example 3.
(§3) After 48 hours of cultivation, the media were removed from the well plates. The cells were fixed with 1 mL of 10% trichloroacetic acid at 4° C. washed 5 times with distilled water and completely dried in the air. The wells were treated with 0.4% SRB solution and died for 30 minutes at an ambient temperature. Subsequently, the wells were washed 5 times with distilled water and dried for 18 hours. To the respective wells, Tris-HCl (1 mL, 10 mM) was added to dissolve the proteins bonded to SRB. The contents of each well were removed and measured for their absorption at 490 nm.

[2] = test system: LL86 (human normal lung cell line); test: Cell growth inhibition assay (SRB assay), LL86; type: cell-based
Experimental: as §1, §2, §3

[3] = test system: v-ras-transformed NIH3T3 (mouse fibroblast cell line); test: Cell growth inhibition assay (SRB assay), v-ras-transformed NIH3T3; type: cell-based; conditions: NIH3T3, 48 h
Experimental: as §1, §2, §3

[4] = test system: AGS (human gastric adenocarcinoma cell line); test: Cell growth inhibition assay (SRB assay), AGS; type: cell-based; conditions: 48 h
Experimental: as §1, §2, §3

[5] = test system: A2058 (human melanoma cell line); test: Cell growth inhibition assay (SRB assay), A2058; type: cell-based; conditions: for IC50: Homo sapiens, A2058, 48 h, read-out: Growth inhibition IC50, A2058 cancer cells, SRB assay, 48 hours
Experimental: as §1, §2, §3

[6] = test system: HBL-100 (human breast cancer cell line); test: Cell growth inhibition assay (SRB assay), HBL-100; type: cell-based; conditions: HBL-100, 48 h
Experimental: as §1, §2, §3

[7] = test system: MCF-7 (human breast cancer cell line); test: Cell growth inhibition assay (SRB assay), MCF-7; type: cell-based; conditions: MCF7, 48 h, read-out: Growth inhibition IC50, MCF-7 cancer cells, SRB assay, 48 hours
Experimental: as §1, §2
(§4) After 48 hours of cultivation, the media were removed from the well plates. The cells were fixed with 1 mL of 10% trichloroacetic acid at 4° C. washed 5 times with distilled water and completely dried in the air. […] The contents of each well were removed and measured for their absorption at 490 nm.

[8] = test system: HeLa (human cervical cancer cell line); test: Cell growth inhibition assay (SRB assay), HeLa; type: cell-based; conditions: 48 h, read-out: Growth inhibition IC50, HeLa cancer cells, SRB assay, 48 hours
Experimental: as §1, §2, §4

[9] = test system: MG63 (human osteosarcoma cell line); test: Cell growth inhibition assay (SRB assay), MG63; type: cell-based; conditions: MG-63, 48 h, read-out: Growth inhibition IC50, MG63 cancer cells, SRB assay, 48 hours
Experimental: as §1, §2, §4

[10] = test system: Colon 3.1-M26 (mouse colon cancer cell line); test: Cell growth inhibition assay (SRB assay), Colon 3.1-M26; type: cell-based; conditions: for IC50: Mus musculus, 48 h
Experimental: as §1, §2, §3

[11] = test system: Histone deacetylase purified from HeLa cells; test: In vitro histone deacetylation assay; type: biochemical, human; conditions: [3H]acetyl histone substrate, 37° C., 20 minutes; read-out: Histone deacetylase inhibition IC50
Experimental: Histone deacetylase was purified from HeLa cells. The activity of histone deacetylase was measured according to a method known in the art—See, e.g., Inoue, A. et al., Biochem. Biophys. […] Here, histone with [^3H]acetyl group labeled with radio-active materials was used as a substrate for measurement of activity of histone deacetylase. After incubation at 37° C. for 20 minutes, [^3H]acetic acid released into medium was extracted with ethylacetate and quantified using a liquid radiation detection method.

[12] = 48 h, read-out: Growth inhibition IC50, LL86 normal cells, SRB assay, 48 hours
[13] = read-out: Growth inhibition IC50, v-ras-transformed NIH3T3 cancer cells, SRB assay, 48 hours
[14] = read-out: Growth inhibition IC50, AGS cancer cells, SRB assay, 48 hours
[15] = read-out: Growth inhibition IC50, HBL-100 cancer cells, SRB assay, 48 hours
[16] = read-out: Growth inhibition IC50, Colon 3.1-M26 cancer cells, SRB assay, 48 hours
[17] = Colon 3.1-M26 cancer cells, SRB assay, 48 hours
[18] = LL86 normal cells, SRB assay, 48 hours, read-out: Growth inhibition IC50
[19] = v-ras-transformed NIH3T3 cancer cells, SRB assay, 48 hours, read-out: Growth inhibition IC50
[20] = AGS cancer cells, SRB assay, 48 hours, read-out: Growth inhibition IC50
[21] = HBL-100 cancer cells, SRB assay, 48 hours, read-out: Growth inhibition IC50
[22] = Colon 3.1-M26 cancer cells, SRB assay, 48 hours, read-out: Growth inhibition IC50

`CCC(=O)CCCCC[C@@H]1NC(=O)[C@H]2CCCCN2C(=O)[C@H]([C@@H](C)CC)NC(=O)[C@H](Cc2cn(OC)c3ccccc23)NC1=O` [Apicidin, apicidin] was tested. Which IC50 [1] did it give?
Its IC50 is 2.36 µg/mL (≈ 3.78 µM).

What about the IC50 [2, 12] of the same molecule?
Its IC50 is 4.25 µg/mL (≈ 6.81 µM).

What about the IC50 [3, 13] of the same molecule?
Its IC50 is 0.18 µg/mL (≈ 0.289 µM).

And the IC50 [4, 14]?
Its IC50 is 0.13 µg/mL (≈ 0.208 µM).

And the IC50 [5]?
Its IC50 is 0.55 µg/mL (≈ 0.882 µM).

And the IC50 [6, 15]?
The IC50 was 0.57 µg/mL (≈ 0.914 µM).

What about the IC50 [7] of the same molecule?
Its IC50 is 1.17 µg/mL (≈ 1.88 µM).

And the IC50 [8]?
The IC50 was 0.51 µg/mL (≈ 0.818 µM).

And the IC50 [9]?
Its IC50 is 1.88 µg/mL (≈ 3.01 µM).

What about the IC50 [10, 16] of the same molecule?
The IC50 was 0.17 µg/mL (≈ 0.273 µM).

`CCC(CCCCCC1NC(=O)C2CCCCN2C(=O)C(C(C)CC)NC(=O)C(Cc2cn(OC)c3ccccc23)NC1=O)=NNC(N)=O` (stereo not shown) [Example 1, Semicarbazone Derivative of Apicidin] was tested. Which “times higher safety against normal cell growth than the parent compound, apicidin” value ([1]; normal cell growth) did it give?
Its value is “about 5 times”.

What about the IC50 [3, 13] of the same molecule?
Its IC50 is less than 0.2 µg/mL.

What about the IC50 [4, 14] of the same molecule?
Its IC50 is less than 0.2 µg/mL.

What about the “Growth inhibition IC50” value ([5]; A2058 cancer cells, SRB assay, 48 hours) of the same molecule?
Its value is 0.34 µg/mL.

What about the IC50 [5] of the same molecule?
Its IC50 is 0.2 to 2.07 µg/mL (≈ 0.294 to 3.04 µM).

What about the IC50 [6, 15] of the same molecule?
The IC50 was less than 0.2 µg/mL.

What about the “Growth inhibition IC50” value [10, 17] of the same molecule?
The value was 0.20 µg/mL.

And the IC50 [10, 16]?
The IC50 was 0.2 to 2.07 µg/mL (≈ 0.294 to 3.04 µM).

And the IC50 [11]?
The IC50 was 1 nM.

Which “Growth inhibition IC50” value [1] does the source give for `CCC(CCCCCC1NC(=O)C2CCCCN2C(=O)C(C(C)CC)NC(=O)C(Cc2cn(OC)c3ccccc23)NC1=O)=NN` (stereo not shown) [Example 2, Hydrazone Derivative of Apicidin] here?
Its value is 8.51 µg/mL.

What about the IC50 [1] of the same molecule?
The IC50 was 4.27 to 18.2 µg/mL (≈ 6.69 to 28.6 µM).

What about the IC50 [2, 12] of the same molecule?
Its IC50 is 4.27 to 18.2 µg/mL (≈ 6.69 to 28.6 µM).

What about the IC50 [2, 18] of the same molecule?
The IC50 was 16.3 µg/mL (≈ 25.6 µM).

What about the IC50 [3, 19] of the same molecule?
The IC50 was less than 0.2 µg/mL.

What about the IC50 [4, 20] of the same molecule?
The IC50 was less than 0.2 µg/mL.

And the IC50 [6, 21]?
Its IC50 is less than 0.2 µg/mL.

What about the “Growth inhibition IC50” value [10, 17] of the same molecule?
The value was 0.20 µg/mL.

And the IC50 [10, 22]?
Its IC50 is 0.2 to 2.07 µg/mL (≈ 0.314 to 3.25 µM).

And the IC50 [11]?
The IC50 was 3 nM.

Which “Growth inhibition IC50” value [1] does the source give for `CCC(CCCCCC1NC(=O)C2CCCCN2C(=O)C(C(C)CC)NC(=O)C(Cc2cn(OC)c3ccccc23)NC1=O)=NNC(C)(C)C` (stereo not shown) [Example 3, tert-butylhydrazone Derivative of Apicidin] here?
The value was 4.27 µg/mL.

And the IC50 [1]?
Its IC50 is 4.27 to 18.2 µg/mL (≈ 6.15 to 26.3 µM).

And the IC50 [2, 12]?
Its IC50 is 4.27 to 18.2 µg/mL (≈ 6.15 to 26.3 µM).

What about the IC50 [2, 18] of the same molecule?
The IC50 was 14.8 µg/mL (≈ 21.3 µM).

And the IC50 [3, 19]?
Its IC50 is less than 0.2 µg/mL.

What about the IC50 [4, 20] of the same molecule?
Its IC50 is less than 0.2 µg/mL.

And the IC50 [6, 21]?
The IC50 was less than 0.2 µg/mL.

What about the “Growth inhibition IC50” value [10, 17] of the same molecule?
The value was 0.21 µg/mL.

And the IC50 [10, 22]?
Its IC50 is 0.2 to 2.07 µg/mL (≈ 0.288 to 2.98 µM).

What about the IC50 [11] of the same molecule?
Its IC50 is 25 nM.

How did the IC50 [11] turn out when `CCC(CCCCCC1NC(=O)C2CCCCN2C(=O)C(C(C)CC)NC(=O)C(Cc2cn(OC)c3ccccc23)NC1=O)=NNC(=O)NN` (stereo not shown) [Example 4, Carbohydrazone Derivative of Apicidin] was run?
Its IC50 is 39 nM.

Source: patent US6831061B2, “Apicidin-derivatives, their synthetic methods and anti-tumor compositions containing them” (priority 2000, dated 2004)
